# Several values for one entry are separate records, joined by “and”; a condition that tells them apart may be missing. Equal entries are not always repeated. Toxic doses and inconclusive results are not listed.
# System: P388 leukemia ip, CD2F1 mice, survival T/C
# Assay: NCI In Vivo Anticancer Drug Screen. Data for tumor model P388 Leukemia (intraperitoneal) in CD2F1 (CDF1) mice
# Settings: endpoint: median survival time, higher = longer survival
# Procedure, shortened: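 Mice carrying the transplanted tumor received test compound or vehicle. Survival was recorded in each group, and the value is the treated-group measurement divided by that of the vehicle-treated control group.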
structure (smiles),measurement,setting,value
O=C1NC2(CCCCC2)C(=O)N1CCN(CCCl)CCCl,T/C,"dose: 0.62 mg/kg/injection, schedule: Q01DX005 (iv), vehicle: other",108 % of control
same,T/C,"dose: 0.75 mg/kg/injection, schedule: Q01DX009 (ip), vehicle: saline",112 % of control and 114 % of control and 122 % of control
same,T/C,"dose: 1.25 mg/kg/injection, schedule: Q01DX001 (iv), vehicle: other",112 % of control
same,T/C,"dose: 1.25 mg/kg/injection, schedule: Q01DX001 (oral), vehicle: other",101 % of control
same,T/C,"dose: 1.25 mg/kg/injection, schedule: Q01DX005 (iv), vehicle: other",116 % of control
same,T/C,"dose: 1.25 mg/kg/injection, schedule: Q01DX009 (ip), vehicle: saline with Tween-80",124 % of control
same,T/C,"dose: 1.5 mg/kg/injection, schedule: Q01DX005 (ip), vehicle: saline",118 % of control and 119 % of control
same,T/C,"dose: 1.5 mg/kg/injection, schedule: Q01DX005 (ip), vehicle: suspension in saline",119 % of control
same,T/C,"dose: 1.5 mg/kg/injection, schedule: Q01DX005 (iv), vehicle: suspension in saline",101 % of control
same,T/C,"dose: 1.5 mg/kg/injection, schedule: Q01DX009 (ip), vehicle: Klucel (hydroxypropylcellulose) (HPC)",164 % of control
same,T/C,"dose: 1.5 mg/kg/injection, schedule: Q01DX009 (ip), vehicle: other",120 % of control
same,T/C,"dose: 2.5 mg/kg/injection, schedule: Q01DX001 (ip), vehicle: other",121 % of control
same,T/C,"dose: 2.5 mg/kg/injection, schedule: Q01DX001 (iv), vehicle: other",109 % of control
same,T/C,"dose: 2.5 mg/kg/injection, schedule: Q01DX005 (iv), vehicle: clinical formulation",115 % of control and 121 % of control
same,T/C,"dose: 2.5 mg/kg/injection, schedule: Q01DX005 (iv), vehicle: other",109 % of control
same,T/C,"dose: 2.5 mg/kg/injection, schedule: Q01DX005 (oral), vehicle: other",100 % of control
same,T/C,"dose: 2.5 mg/kg/injection, schedule: Q01DX009 (ip), vehicle: clinical formulation",152 % of control and 154 % of control and 180 % of control
same,T/C,"dose: 2.5 mg/kg/injection, schedule: Q01DX009 (ip), vehicle: other",151 % of control
same,T/C,"dose: 2.5 mg/kg/injection, schedule: Q01DX009 (ip), vehicle: saline with Tween-80",167 % of control
same,T/C,"dose: 2.5 mg/kg/injection, schedule: Q01DX009 (oral), vehicle: other",109 % of control
same,T/C,"dose: 3.0 mg/kg/injection, schedule: Q01DX005 (iv), vehicle: suspension in saline",105 % of control
same,T/C,"dose: 3.0 mg/kg/injection, schedule: Q01DX009 (ip), vehicle: Klucel (hydroxypropylcellulose) (HPC)",166 % of control and 169 % of control
same,T/C,"dose: 3.0 mg/kg/injection, schedule: Q01DX009 (ip), vehicle: saline with Tween-80",163 % of control
same,T/C,"dose: 3.0 mg/kg/injection, schedule: Q01DX009 (oral), vehicle: Klucel (hydroxypropylcellulose) (HPC)",108 % of control
same,T/C,"dose: 3.0 mg/kg/injection, schedule: Q01DX009 (oral), vehicle: saline",102 % of control
same,T/C,"dose: 5.0 mg/kg/injection, schedule: Q01DX001 (iv), vehicle: other",105 % of control
same,T/C,"dose: 5.0 mg/kg/injection, schedule: Q01DX001 (oral), vehicle: other",99 % of control
same,T/C,"dose: 5.0 mg/kg/injection, schedule: Q01DX005 (iv), vehicle: clinical formulation",156 % of control
same,T/C,"dose: 5.0 mg/kg/injection, schedule: Q01DX005 (iv), vehicle: other",113 % of control
same,T/C,"dose: 5.0 mg/kg/injection, schedule: Q01DX005 (oral), vehicle: other",99 % of control
same,T/C,"dose: 5.0 mg/kg/injection, schedule: Q01DX009 (ip), vehicle: other",175 % of control
same,T/C,"dose: 5.0 mg/kg/injection, schedule: Q01DX009 (oral), vehicle: other",114 % of control
same,T/C,"dose: 6.0 mg/kg/injection, schedule: Q01DX005 (ip), vehicle: suspension in saline",164 % of control
same,T/C,"dose: 6.0 mg/kg/injection, schedule: Q01DX005 (iv), vehicle: suspension in saline",108 % of control
same,T/C,"dose: 6.0 mg/kg/injection, schedule: Q01DX009 (ip), vehicle: other",157 % of control
same,T/C,"dose: 6.0 mg/kg/injection, schedule: Q01DX009 (oral), vehicle: Klucel (hydroxypropylcellulose) (HPC)",102 % of control
same,T/C,"dose: 6.0 mg/kg/injection, schedule: Q01DX009 (oral), vehicle: saline",108 % of control
same,T/C,"dose: 6.25 mg/kg/injection, schedule: Q01DX009 (oral), vehicle: Klucel (hydroxypropylcellulose) (HPC)",112 % of control and 113 % of control
same,T/C,"dose: 8.0 mg/kg/injection, schedule: Q01DX001 (ip), vehicle: suspension in saline",108 % of control and 116 % of control
same,T/C,"dose: 10.0 mg/kg/injection, schedule: Q01DX001 (iv), vehicle: other",116 % of control
same,T/C,"dose: 10.0 mg/kg/injection, schedule: Q01DX001 (oral), vehicle: other",107 % of control
same,T/C,"dose: 10.0 mg/kg/injection, schedule: Q01DX005 (iv), vehicle: clinical formulation",104 % of control
same,T/C,"dose: 10.0 mg/kg/injection, schedule: Q01DX005 (oral), vehicle: other",112 % of control
same,T/C,"dose: 10.0 mg/kg/injection, schedule: Q01DX009 (ip), vehicle: clinical formulation",170 % of control
same,T/C,"dose: 10.0 mg/kg/injection, schedule: Q01DX009 (ip), vehicle: saline with Tween-80",121 % of control
same,T/C,"dose: 10.0 mg/kg/injection, schedule: Q01DX009 (oral), vehicle: other",116 % of control
same,T/C,"dose: 12.0 mg/kg/injection, schedule: Q01DX005 (ip), vehicle: saline",163 % of control and 167 % of control
same,T/C,"dose: 12.0 mg/kg/injection, schedule: Q01DX009 (ip), vehicle: Klucel (hydroxypropylcellulose) (HPC)",121 % of control
same,T/C,"dose: 12.0 mg/kg/injection, schedule: Q01DX009 (ip), vehicle: other",168 % of control
same,T/C,"dose: 12.0 mg/kg/injection, schedule: Q01DX009 (oral), vehicle: Klucel (hydroxypropylcellulose) (HPC)",117 % of control
same,T/C,"dose: 12.0 mg/kg/injection, schedule: Q01DX009 (oral), vehicle: other",100 % of control
same,T/C,"dose: 12.0 mg/kg/injection, schedule: Q01DX009 (oral), vehicle: saline",110 % of control
same,T/C,"dose: 12.5 mg/kg/injection, schedule: Q01DX009 (oral), vehicle: Klucel (hydroxypropylcellulose) (HPC)",115 % of control and 120 % of control
same,T/C,"dose: 15.0 mg/kg/injection, schedule: Q01DX009 (ip), vehicle: Klucel (hydroxypropylcellulose) (HPC)",100 % of control
same,T/C,"dose: 16.0 mg/kg/injection, schedule: Q01DX001 (ip), vehicle: suspension in saline",104 % of control
same,T/C,"dose: 20.0 mg/kg/injection, schedule: Q01DX001 (ip), vehicle: other",151 % of control
same,T/C,"dose: 20.0 mg/kg/injection, schedule: Q01DX001 (iv), vehicle: other",122 % of control
same,T/C,"dose: 20.0 mg/kg/injection, schedule: Q01DX001 (oral), vehicle: other",104 % of control
same,T/C,"dose: 20.0 mg/kg/injection, schedule: Q01DX005 (oral), vehicle: other",109 % of control
same,T/C,"dose: 24.0 mg/kg/injection, schedule: Q01DX005 (ip), vehicle: saline",181 % of control
same,T/C,"dose: 24.0 mg/kg/injection, schedule: Q01DX005 (iv), vehicle: suspension in saline",117 % of control
same,T/C,"dose: 24.0 mg/kg/injection, schedule: Q01DX009 (oral), vehicle: Klucel (hydroxypropylcellulose) (HPC)",122 % of control
same,T/C,"dose: 24.0 mg/kg/injection, schedule: Q01DX009 (oral), vehicle: other",107 % of control
same,T/C,"dose: 24.0 mg/kg/injection, schedule: Q01DX009 (oral), vehicle: saline",113 % of control
same,T/C,"dose: 25.0 mg/kg/injection, schedule: Q01DX001 (ip), vehicle: Klucel (hydroxypropylcellulose) (HPC)",168 % of control
same,T/C,"dose: 25.0 mg/kg/injection, schedule: Q01DX001 (ip), vehicle: saline",175 % of control
same,T/C,"dose: 32.0 mg/kg/injection, schedule: Q01DX001 (ip), vehicle: suspension in saline",101 % of control
same,T/C,"dose: 32.0 mg/kg/injection, schedule: Q01DX001 (oral), vehicle: suspension in saline",100 % of control
same,T/C,"dose: 40.0 mg/kg/injection, schedule: Q01DX001 (ip), vehicle: other",181 % of control
same,T/C,"dose: 40.0 mg/kg/injection, schedule: Q01DX001 (oral), vehicle: other",101 % of control
same,T/C,"dose: 40.0 mg/kg/injection, schedule: Q01DX005 (oral), vehicle: other",118 % of control
same,T/C,"dose: 40.0 mg/kg/injection, schedule: Q01DX009 (oral), vehicle: other",115 % of control
same,T/C,"dose: 48.0 mg/kg/injection, schedule: Q01DX009 (oral), vehicle: Klucel (hydroxypropylcellulose) (HPC)",119 % of control
same,T/C,"dose: 48.0 mg/kg/injection, schedule: Q01DX009 (oral), vehicle: other",103 % of control
same,T/C,"dose: 48.0 mg/kg/injection, schedule: Q01DX009 (oral), vehicle: saline",119 % of control
same,T/C,"dose: 50.0 mg/kg/injection, schedule: Q01DX009 (oral), vehicle: Klucel (hydroxypropylcellulose) (HPC)",155 % of control
same,T/C,"dose: 64.0 mg/kg/injection, schedule: Q01DX001 (ip), vehicle: saline",163 % of control
same,T/C,"dose: 64.0 mg/kg/injection, schedule: Q01DX001 (ip), vehicle: suspension in saline",101 % of control
same,T/C,"dose: 64.0 mg/kg/injection, schedule: Q01DX001 (oral), vehicle: saline",99 % of control
same,T/C,"dose: 64.0 mg/kg/injection, schedule: Q01DX001 (oral), vehicle: suspension in saline",106 % of control and 108 % of control
same,T/C,"dose: 96.0 mg/kg/injection, schedule: Q01DX009 (oral), vehicle: other",107 % of control
same,T/C,"dose: 100.0 mg/kg/injection, schedule: Q01DX009 (oral), vehicle: Klucel (hydroxypropylcellulose) (HPC)",120 % of control
same,T/C,"dose: 128.0 mg/kg/injection, schedule: Q01DX001 (oral), vehicle: saline",99 % of control
same,T/C,"dose: 128.0 mg/kg/injection, schedule: Q01DX001 (oral), vehicle: suspension in saline",102 % of control and 109 % of control
same,T/C,"dose: 256.0 mg/kg/injection, schedule: Q01DX001 (oral), vehicle: saline",107 % of control
same,T/C,"dose: 256.0 mg/kg/injection, schedule: Q01DX001 (oral), vehicle: suspension in saline",103 % of control and 105 % of control
